Measurements from the supplement of paper PMC7017272.
± gives the standard deviation of the averaged measurements.

What was measured:
Settings in all cases: treatment time: 3 days
[1] = system: UT-SCC-106A; experiment: maximal % inhibition of viability relative to DMSO; higher = stronger effect
How it was run: (§1)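 Viability was read with CellTiter-Glo 2.0 luminescence and scaled against vehicle (0.1% DMSO) and cell-killing control wells. The assay used HPV-negative HNSCC cell lines at 500 cells/well in 384-well plates, grown on plastic, on Matrigel or Myogel coatings (500 µg/mL), or embedded in Matrigel or Myogel plus rat collagen I, and treated for 3 days at five 10-fold concentrations. IC50, maximal inhibition and drug sensitivity score were derived from percent-inhibition dose–response curves fitted in the FIMM pipeline.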

[2] = system: UT-SCC-28; experiment: as above
How it was run: as §1

[3] = system: UT-SCC-14; experiment: as above
How it was run: as §1

[4] = system: UT-SCC-24A; experiment: drug sensitivity score (DSS); higher = more sensitive
Procedure: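 HNSCC cell lines (500 cells/well, 384-well) were cultured on plastic, on top of (2D) or embedded (3D) in Matrigel or human leiomyoma matrix Myogel (500 ug/mL; Myogel 3D mixed with rat collagen I). Cells were treated for 3 days with 5 ten-fold concentrations of each drug, and viability was read by CellTiter-Glo. Suffixes _1/_2/_3 on drug names are replicates.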

[5] = system: UT-SCC-24A; experiment: maximal % inhibition of viability relative to DMSO; higher = stronger effect
Procedure: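 HNSCC cell lines (500 cells/well, 384-well) were cultured on plastic, on top of (2D) or embedded (3D) in Matrigel or human leiomyoma matrix Myogel (500 ug/mL; Myogel 3D mixed with rat collagen I). Cells were treated for 3 days with 5 ten-fold concentrations of each drug, and viability was read by CellTiter-Glo. Viability was normalised to DMSO (0% inhibition) and 100 uM benzethonium chloride (100% inhibition) controls and fitted with the FIMM DSRT pipeline to give IC50 (nM), maximal % inhibition and the drug sensitivity score (DSS). Suffixes _1/_2/_3 on drug names are replicates.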

[6] = system: UT-SCC-73; experiment: drug sensitivity score (DSS); higher = more sensitive; extreme values may be limits of the assay
How it was run: as §1

[7] = system: UT-SCC-44; experiment: as above
How it was run: as §1

[8] = system: UT-SCC-106A; experiment: as above
How it was run: as §1

[9] = system: UT-SCC-42A; experiment: as above
How it was run: as §1

[10] = system: UT-SCC-28; experiment: as above
How it was run: as §1

[11] = system: UT-SCC-81; experiment: as above
How it was run: as §1

[12] = system: UT-SCC-8; experiment: as above
How it was run: as §1

[13] = system: UT-SCC-24B; experiment: as above
How it was run: as §1

[14] = system: UT-SCC-14; experiment: as above
How it was run: as §1

[15] = system: UT-SCC-40; experiment: as above
How it was run: as §1

[16] = system: UT-SCC-42B; experiment: as above
How it was run: as §1

[17] = culture condition: embedded in Matrigel
[18] = culture condition: embedded in Myogel + collagen I
[19] = culture condition: on top of Matrigel
[20] = culture condition: on top of Myogel
[21] = culture condition: plastic 2D (no matrix)

Structure (SMILES): Cn1c(=O)c(F)c(Nc2ccc(I)cc2F)c2c(=O)n(C[C@@H](O)CO)cnc21 [TAK-733]
- maximal % inhibition of viability [1, 17]: 52.3 ± 2.4%
- maximal % inhibition of viability [1, 18]: 19 ± 5.5%
- maximal % inhibition of viability [1, 19]: 61.9 ± 4.9%
- maximal % inhibition of viability [1, 20]: 17.8 ± 1.7%
- maximal % inhibition of viability [1, 21]: 63.4 ± 1.2%
- maximal % inhibition of viability [2, 17]: 36.6 ± 7.2%
- maximal % inhibition of viability [2, 18]: 22.7 ± 21%
- maximal % inhibition of viability [2, 19]: 41.5 ± 1.7%
- maximal % inhibition of viability [2, 21]: 25.6 ± 1%
- maximal % inhibition of viability [3, 17]: 42.3 ± 17%
- maximal % inhibition of viability [3, 18]: 31.8 ± 2.2%
- maximal % inhibition of viability [3, 19]: 33.3 ± 3.4%
- maximal % inhibition of viability [3, 20]: 28.6 ± 2.2%
- maximal % inhibition of viability [3, 21]: 20.4 ± 13%
- drug sensitivity score [4, 17]: 32.5 ± 1.7 DSS
- drug sensitivity score [4, 18]: 17 ± 1.9 DSS
- drug sensitivity score [4, 19]: 27 ± 0.5 DSS
- drug sensitivity score [4, 20]: 9.37 ± 1.8 DSS
- drug sensitivity score [4, 21]: 24.6 ± 0.76 DSS
- maximal % inhibition of viability [5, 17]: 81.5 ± 1.9%
- maximal % inhibition of viability [5, 18]: 53.9 ± 2.1%
- maximal % inhibition of viability [5, 19]: 77.7 ± 1.1%
- maximal % inhibition of viability [5, 20]: 45.9 ± 4%
- maximal % inhibition of viability [5, 21]: 70.6 ± 1.3%
- drug sensitivity score [6, 17]: 24.7 ± 0.5 DSS
- drug sensitivity score [6, 18]: 13.8 ± 6 DSS
- drug sensitivity score [6, 19]: 21.4 ± 1.6 DSS
- drug sensitivity score [6, 20]: 12.9 ± 0.38 DSS
- drug sensitivity score [6, 21]: 17.5 ± 1.3 DSS
- drug sensitivity score [7, 17]: 21.6 ± 1.5 DSS
- drug sensitivity score [7, 18]: 3.67 ± 1.4 DSS
- drug sensitivity score [7, 19]: 14.8 ± 1.2 DSS
- drug sensitivity score [7, 20]: 5.27 ± 2.8 DSS
- drug sensitivity score [7, 21]: 12.9 ± 0.4 DSS
- drug sensitivity score [8, 17]: 16.8 ± 1.1 DSS
- drug sensitivity score [8, 18]: 1.2 ± 0.56 DSS
- drug sensitivity score [8, 19]: 18.7 ± 0.38 DSS
- drug sensitivity score [8, 20]: 1.07 ± 1.1 DSS
- drug sensitivity score [8, 21]: 19 ± 1.2 DSS
- drug sensitivity score [9, 17]: 16.7 ± 2 DSS
- drug sensitivity score [9, 18]: 8.73 ± 7.5 DSS
- drug sensitivity score [9, 19]: 16 ± 1.3 DSS
- drug sensitivity score [9, 20]: 9.63 ± 2.4 DSS
- drug sensitivity score [9, 21]: 11.4 ± 1.6 DSS
- drug sensitivity score [10, 17]: 9.3 ± 2.7 DSS
- drug sensitivity score [10, 18]: 0.8 ± 1.4 DSS
- drug sensitivity score [10, 19]: 10.8 ± 2.5 DSS
- drug sensitivity score [10, 21]: 5 ± 1.4 DSS
- drug sensitivity score [11, 17]: 28.8 ± 3.6 DSS
- drug sensitivity score [11, 18]: 3.93 ± 2.7 DSS
- drug sensitivity score [11, 19]: 19.6 ± 1.2 DSS
- drug sensitivity score [11, 20]: 2.63 ± 2.3 DSS
- drug sensitivity score [11, 21]: 2.9 ± 0.17 DSS
- drug sensitivity score [12, 17]: 13.6 ± 2.6 DSS
- drug sensitivity score [12, 18]: 2.3 ± 2.6 DSS
- drug sensitivity score [12, 19]: 8.03 ± 4.5 DSS
- drug sensitivity score [12, 20]: 7.53 ± 4.9 DSS
- drug sensitivity score [12, 21]: 7.07 ± 2.1 DSS
- drug sensitivity score [13, 17]: 9.43 ± 5.1 DSS
- drug sensitivity score [13, 18]: 8.77 ± 1.4 DSS
- drug sensitivity score [13, 19]: 10 ± 1.8 DSS
- drug sensitivity score [13, 20]: 5.97 ± 2.3 DSS
- drug sensitivity score [13, 21]: 13 ± 6 DSS
- drug sensitivity score [14, 17]: 11.2 ± 3.2 DSS
- drug sensitivity score [14, 18]: 7.5 ± 1.5 DSS
- drug sensitivity score [14, 19]: 7.13 ± 0.64 DSS
- drug sensitivity score [14, 20]: 5 ± 0.98 DSS
- drug sensitivity score [14, 21]: 2.67 ± 3 DSS
- drug sensitivity score [15, 17]: 24 ± 0.56 DSS
- drug sensitivity score [15, 18]: 16.2 ± 2.5 DSS
- drug sensitivity score [15, 19]: 20.2 ± 1.5 DSS
- drug sensitivity score [15, 20]: 10 ± 0.56 DSS
- drug sensitivity score [15, 21]: 11.6 ± 1.3 DSS
- drug sensitivity score [16, 17]: 24.1 ± 2.8 DSS
- drug sensitivity score [16, 19]: 12.4 ± 1.9 DSS
- drug sensitivity score [16, 20]: 2.6 ± 0.1 DSS
- drug sensitivity score [16, 21]: 6.27 ± 1.4 DSS
